Experiments:
Test in all cases: relative viability (nuclei count vs DMSO), 5 days (fraction); higher = more cells survive
[1] = compound: C1CNCCC1C2=CC(=NN2)C3=CC=NC=C3 + NC(=O)Nc1cc(-c2cccc(F)c2)sc1C(=O)N[C@H]1CCCNC1 [AZD7762] (partner 0.2 µM)
Procedure, shortened: (§1)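 Medians of duplicate plates are given as relative viability. That measure is the nuclei count in treated wells divided by the count in vehicle wells. Counts were taken on 4× images of lung cancer cell lines in 1536-well plates, 5 days after pin-tool dosing the day after seeding with one drug alone or a fixed anchor-drug dose plus five library-drug doses (not always all listed) in √10 steps.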

[2] = compound: C1CNCCC1C2=CC(=NN2)C3=CC=NC=C3 + Cc1nc(Nc2ncc(C(=O)Nc3c(C)cccc3Cl)s2)cc(N2CCN(CCO)CC2)n1 [Dasatinib] (partner 0.075 µM)
Procedure, shortened: as §1

Tanzisertib + Olaparib = compound: O[C@H]1CC[C@H](Nc2ncc3nc(Nc4c(F)cc(F)cc4F)n([C@H]4CCOC4)c3n2)CC1 [Tanzisertib] + O=C(c1cc(Cc2n[nH]c(=O)c3ccccc23)ccc1F)N1CCN(C(=O)C2CC2)CC1 [Olaparib] (partner 8 µM)
Procedure, shortened: as §1

[3] = compound: C[C@@H](N)c1ccc(C(=O)Nc2ccnc3[nH]ccc23)cc1 + NC(=O)Nc1cc(-c2cccc(F)c2)sc1C(=O)N[C@H]1CCCNC1 [AZD7762] (partner 0.2 µM)
Procedure, shortened: as §1

Row | Cell Line | relative viability ([1]; first compound 0.08 µM) | relative viability ([1]; first compound 0.8 µM) | relative viability ([1]; first compound 2.53 µM) | relative viability ([1]; first compound 8 µM) | relative viability ([2]; first compound 0.08 µM) | relative viability ([2]; first compound 0.8 µM) | relative viability ([2]; first compound 2.53 µM) | relative viability ([2]; first compound 8 µM) | relative viability (Tanzisertib + Olaparib; first compound 0.08 µM) | relative viability (Tanzisertib + Olaparib; first compound 0.253 µM) | relative viability (Tanzisertib + Olaparib; first compound 0.8 µM) | relative viability (Tanzisertib + Olaparib; first compound 2.53 µM) | relative viability (Tanzisertib + Olaparib; first compound 8 µM) | relative viability ([3]; first compound 0.04 µM) | relative viability ([3]; first compound 0.1265 µM) | relative viability ([3]; first compound 0.4 µM) | relative viability ([3]; first compound 1.265 µM) | relative viability ([3]; first compound 4 µM)
1 | LXF-289 | 1.15 | 1.14 | 1.15 | 1.1 | 0.267 | 0.184 | 0.228 | 0.185 | 1.13 | 1.02 | 1.12 | 1.02 | 1.13 | 1.07 | 1.09 | 1.23 | 1.26 | 0.934
2 | HCC-827 | 0.248 | 0.155 | 0.271 | 0.223 | 0.366 | 0.228 | 0.302 | 0.308 | 0.616 | 0.716 | 0.711 | 0.54 | 0.355 | – | 0.286 | 0.247 | 0.329 | 0.275
3 | EMC-BAC-2 | 0.892 | 1.14 | 1.16 | 1.12 | 0.261 | 0.349 | 0.352 | 0.395 | 0.484 | 0.477 | 0.455 | 0.488 | 0.533 | 0.946 | 1.09 | 1.17 | 1.03 | 0.895
4 | NCI-H520 | – | – | – | – | 0.17 | 0.163 | 0.187 | 0.206 | 0.395 | 0.331 | 0.39 | 0.328 | 0.433 | – | – | – | – | –
5 | NCI-H1755 | 0.473 | 0.448 | 0.419 | 0.561 | 0.483 | – | 0.474 | 0.399 | 0.906 | 0.868 | 0.889 | 0.855 | 0.865 | 0.408 | 0.46 | 0.451 | 0.362 | 0.397
6 | NCI-H1993 | 0.874 | 0.631 | 0.858 | 0.681 | 0.538 | 0.541 | 0.56 | 0.667 | 0.985 | 0.928 | 1.17 | 1.04 | 0.766 | 0.867 | 0.817 | – | 1.04 | 1.26
7 | NCI-H23 | 0.329 | – | 0.326 | 0.308 | 0.826 | 0.808 | 0.805 | 0.908 | 0.316 | 0.341 | 0.36 | 0.301 | 0.314 | 0.268 | 0.169 | 0.372 | – | 0.539
8 | SW 900 | 0.687 | – | 0.718 | 0.738 | 0.568 | 0.445 | 0.519 | 0.452 | – | 0.82 | 0.963 | 0.782 | 0.722 | 0.772 | 0.698 | 0.661 | 0.777 | 0.878
9 | NCI-H1437 | 1.09 | 1.09 | 1.17 | 1.09 | 0.464 | 0.381 | 0.406 | 0.45 | 0.634 | 0.647 | 0.669 | 0.652 | 0.619 | 1.12 | 1.13 | 1.14 | 1.13 | 1.04
10 | SK-MES-1 | – | – | – | – | 0.424 | 0.221 | 0.465 | 0.368 | 0.699 | 0.709 | 0.742 | 0.653 | 0.624 | – | – | – | – | –
11 | NCI-H2405 | 0.858 | 0.717 | 0.709 | 0.585 | 0.201 | 0.213 | 0.187 | 0.202 | 0.924 | 0.902 | 0.869 | 1.03 | 0.869 | – | 0.702 | 0.438 | 0.253 | 0.179
12 | NCI-H2023 | – | – | – | – | 0.48 | 0.661 | 0.583 | 0.567 | 0.523 | 0.47 | 0.497 | 0.44 | 0.452 | – | – | – | – | –
13 | NCI-H838 | 0.928 | 0.888 | 0.989 | 0.934 | 0.308 | 0.295 | 0.277 | 0.3 | 0.823 | 0.756 | 0.741 | 0.725 | 0.788 | 0.848 | 0.957 | 0.936 | 0.852 | 0.752
14 | NCI-H1299 | – | – | – | – | – | – | – | – | 0.997 | 0.972 | 0.96 | 1.1 | 1.03 | – | – | – | – | –
15 | NCI-H1563 | – | – | – | – | 0.451 | 0.465 | 0.486 | 0.485 | – | – | – | – | – | – | – | – | – | –
16 | NCI-H661 | – | – | – | – | 0.896 | 0.839 | 1.05 | 0.817 | 0.807 | 0.756 | 0.74 | 0.786 | 0.724 | – | – | – | – | –
17 | NCI-H1734 | 0.445 | 0.59 | 0.652 | 0.584 | 0.424 | 0.533 | 0.527 | 0.529 | 0.66 | 0.626 | 0.604 | 0.671 | 0.687 | 0.461 | 0.526 | 0.575 | 0.414 | 0.57
18 | NCI-H1650 | – | – | – | – | 0.262 | 0.257 | 0.356 | 0.35 | 0.807 | 0.778 | 0.882 | 0.671 | 0.662 | – | – | – | – | –
19 | Calu-6 | – | – | – | – | – | – | – | – | 0.583 | 0.566 | 0.563 | 0.597 | 0.509 | – | – | – | – | –
20 | NCI-H1703 | – | 0.104 | – | 0.133 | – | – | – | – | 0.457 | 0.453 | 0.388 | 0.35 | 0.392 | – | 0.125 | 0.131 | – | 0.105
21 | EBC-1 | – | – | – | – | – | – | – | – | 0.747 | 0.675 | 0.675 | 0.603 | 0.536 | – | – | – | – | –
22 | COR-L23 | – | – | – | – | 0.532 | 0.417 | 0.518 | 0.469 | 0.339 | 0.353 | 0.347 | 0.417 | 0.353 | – | – | – | – | –
23 | HCC-44 | 0.976 | 1.04 | 1.04 | 1.04 | – | – | – | – | 0.99 | 1.08 | 0.965 | 1.03 | 1.11 | 1.07 | 1.01 | 1.09 | 1.26 | 1.09
24 | SW 1573 | – | – | – | – | – | 0.647 | 0.658 | 0.486 | 0.453 | 0.406 | 0.475 | 0.455 | 0.443 | – | – | – | – | –
25 | NCI-H1648 | 0.632 | 0.716 | – | 0.78 | – | – | – | – | 0.662 | 1.22 | 0.797 | 0.817 | 0.765 | 0.951 | 1.01 | 0.924 | 1.61 | 1.35
26 | SK-LU-1 | – | – | – | – | 0.156 | 0.181 | 0.206 | 0.166 | 0.502 | 0.538 | 0.453 | 0.491 | 0.373 | – | – | – | – | –
27 | A549 | – | – | – | – | – | – | – | – | 0.297 | 0.397 | 0.344 | 0.35 | 0.0802 | – | – | – | – | –
